Measured values taken from US6489475B2, “Method of producing heterocyclic derivatives” (Sankyo Company, Limited, priority 1994, dated 2002).
Marks after values point to notes of the source that are not given here.

Tests used:
Male Wister rats = assay: Serum total cholesterol reducing effect in rats on high cholesterol feed; assay type: in vivo; conditions: oral, once a day for 3 days, rat
Procedure: Serum Total Cholesterol Reducing Effect
Male Wister rats weighing 180-200 g were bred under free access to a high cholesterol feed [added with cholesterol (1%), cholic acid (0.5%) and coconut oil (10%), Clea Japan, Inc.] for 3 days, during which period a test compound (10-100 mg/kg) suspended in 5% gum arabic solution was forcibly administered once a day orally for 3 days. Only 5% gum arabic solution was administered to control animals. After final administration, the test animals were fasted for 5 hours and the blood was taken. The serum total cholesterol level was determined using a commercially available assay kit (cholesterol-E-Test Wako, Wako Pure Chemical Industries, Ltd.). The activity of the test compound was expressed as a proportion (%) of reduction of serum total cholesterol level, namely, the proportion of reduction of serum total cholesterol as compared to control.

LDL = LDL peroxidation inhibitory effect (copper sulfate, malondialdehyde by thiobarbituric acid method); assay type: biochemical, rabbit; conditions: concentration 10^-5M; 37°C, 24 hours; malondialdehyde production inhibitory ratio
Procedure: LDL Peroxidation Inhibitory Effect
Male Japanese white rabbits weighing 2-2.5 kg were bred on 100 g per day of a high cholesterol feed [added with cholesterol (1%), Clea Japan, Inc.] for 4 weeks. The blood was taken from carotid and plasma was obtained. Then, LDL was fractionated from the plasma by ultracentrifugation, dialyzed for one day and preserved at 4° C. LDL (400 μg) and aqueous copper sulfate solution (final concentration 5 μM) were added to bufferized Ham F-10 medium (2 ml, GIBCO, USA). DMSO or a solution (20 μl) of test compound dissolved in DMSO was added and the mixture was incubated at 37° C. for 24 hours. After the completion of the incubation, LDL peroxide in medium was allowed to develop color by thiobarbituric acid method and assayed as malondialdehyde. The activity of the test compound was expressed as malondialdehyde production inhibitory ratio (%), namely, the proportion of inhibition of production of malondialdehyde as compared to control.

plasma = assay: Plasma lipoperoxidation inhibitory effect (copper sulfate, malondialdehyde by thiobarbituric acid method); assay type: biochemical, rabbit; conditions: concentration 10^-5M; 37°C, 3 hours; malondialdehyde production inhibitory ratio
Procedure: Plasma Lipoperoxidation Inhibitory Effect
The blood was taken from male Japanese white rabbits weighing 2-2.5 kg under anesthesia and heparinized plasma was separated by a conventional method. To the plasma (2.0 ml) was added DMSO or a solution (20 μl, final concentration 10^−5 M) of test compound dissolved in DMSO, and aqueous copper sulfate solution (final concentration 5 mM) was added immediately thereafter. The mixture was incubated at 37° C. for 3 hours. After the completion of the incubation, 20% trichloroacetic acid was added to stop the reaction. Then, the mixture was centrifuged at 4° C., 4,500 rpm for 15 minutes. The lipoperoxide in the supernatant thus obtained was assayed as malondialdehyde upon color development by thiobarbituric acid method. The activity of the test compound was expressed as malondialdehyde production inhibitory ratio (%), namely, the proportion of inhibition of production of malondialdehyde as compared to control.

ACAT = ACAT inhibitory activity (small intestine mucosa microsomes, [1-14C]-oleoyl CoA, cholesteryl oleate production); assay type: biochemical, rabbit; conditions: inhibition of cholesteryl oleate production vs control
Procedure: A high cholesterol feed [a feed added with cholesterol (1%), Clea Japan, Inc.] was fed to male Japanese white rabbits weighing 2-2.5 kg at 100 g per day and the rabbits were bred for 4 weeks. The rabbits were killed by bleeding under anesthesia and small intestine was removed. The mucous membrane of small intestine was peeled, collected and homogenated. The homogenate was centrifuged at 4° C. and 10,000 rpm for 15 min. The obtained supernatant was further centrifuged at 4° C. and 41,000 rpm for 30 minutes to give microsomal fractions. Using this microsomal suspension as an enzyme sample, dimethyl sulfoxide (DMSO, 5 μl) or a test compound dissolved in DMSO (test compound solution, 5 μl), and a reaction substrate [1-^14C]-oleoyl CoA were added to a reaction buffer. After incubation at 37° C. for 5 minutes, a chloroform-methanol mixture was added to stop the reaction. Water was added thereto and mixed, and chloroform layer was separated. The solvent was evaporated to dryness, and the residue was dissolved in hexane. The mixture was subjected to thin layer chromatography using a silica gel plate. The spots of cholesteryl oleate on the silica gel plate were scraped, and quantitatively assayed on a liquid scintillation counter. The ACAT inhibitory activity of the test compound was expressed as a proportion (%) of inhibition of cholesteryl oleate, namely, the proportion of inhibition of cholesteryl oleate production as compared to control.

SMILES | Result of Exp. Ex. 2: reduction of serum total cholesterol (Male Wister rats; dose 100 mg/kg/day) | Result of Exp. Ex. 3: LDL peroxidation inhibition (LDL) [%] | Result of Exp. Ex. 4: plasma lipoperoxidation inhibition (plasma) [%] | Result of Exp. Ex. 1: ACAT inhibition (ACAT; concentration 10^-5M) | Result of Exp. Ex. 2: reduction of serum total cholesterol (Male Wister rats; dose 30 mg/kg/day) | Result of Exp. Ex. 2: reduction of serum total cholesterol (Male Wister rats; dose 10 mg/kg/day) | Result of Exp. Ex. 1: ACAT inhibition (ACAT; concentration 10^-4M)
CCCCCCN1CCc2c1cc(C)c(NC(=O)NCCCC)c2C [Example 1, 1-butyl-3-(1-hexyl-4,6-dimethylindolin-5-yl)urea] | 12.9 *** % | 99.2 | 94.3 | 76.6 ** % | – | – | –
CCCCCCN1CCc2c1cc(C)c(NC(=O)C(C)(C)C)c2C [Example 2, N-(1-hexyl-4,6-dimethylindolin-5-yl)-2,2-dimethylpropanamide] | – | 99.5 | 95.8 | 59.9 ** % | – | – | –
CCCCCCN1CCc2c(C)cc(C)c(NC(=O)NCCCC)c21 [Example 4, 1-butyl-3-(1-hexyl-4,6-dimethylindolin-7-yl)urea] | – | 59.5 | 92.0 | 94.9 ** % | 21.4 ** % | – | –
CCCCC(C)(C)C(=O)Nc1c(C)cc(C)c2c1N(CC)CC2 [Example 6] | – | 24.8 | 37.4 | 99.8 ** % | 53.3 ** % | – | –
CCCCCCN1CCc2c(OC)cc(OC)c(NC(=O)C(C)(C)C)c21 [Example 7] | – | 86.6 | 86.4 | 96.2 ** % | 19.2 ** % | – | –
CCCCN1CCc2c(C)cc(C)c(NC(=O)C(C)(C)C)c21 [Example 8] | – | 91.9 | 85.1 | 99.7 ** % | 48.0 ** % | – | –
CCCCN1CCc2c(C)cc(C)c(NC(=O)C(C)(C)CCCC)c21 [Example 9] | – | 93.7 | 81.6 | 81.3 ** % | 51.3 ** % | – | –
CCCCCCC(C)(C)C(=O)Nc1c(C)cc(C)c2c1N(CCCC)CC2 [Example 10] | – | 18.3 | 82.6 | 98.7 ** % | 55.2 ** % | – | –
CCCCCCCCN1CCc2c(C)cc(C)c(NC(=O)C(C)(C)C)c21 [Example 11] | – | 91.6 | 78.8 | 99.2 ** % | – | 59.5 * % | –
CCCCCCC(C)(C)C(=O)Nc1c(C)cc(C)c2c1N(CC)CC2 [Example 13] | – | 82.4 | 87.1 | 96.0 ** % | 28.4 ** % | – | –
CCCCCCN1CCc2c(C)cc(C)c(NC(=O)C(C)(C)CCCC)c21 [Example 14] | – | 88.3 | 93.1 | 96.6 ** % | 53.9 ** % | – | –
CCCCCCN1CCc2c(C)cc(C)c(NC(=O)C(C)(C)CCCCCC)c21 [Example 15] | – | 12.3 | 90.1 | 93.1 ** % | – | 35.0 * % | –
CCCCCCN1CCc2c(C)cc(C)c(NC(=O)C(C)C)c21 [Example 17] | – | 89.6 | 91.1 | 96.7 ** % | – | 27.0 * % | –
CCCCCCN1CCc2c(C)cc(C)c(NC(=O)CC(C)(C)CC(=O)O)c21 [Example 18] | – | 34.0 | 87.1 | – | 22.3 ** % | – | 69.6 * %
CCCCCCN1CCc2c(C)cc(C)c(NC(=O)C(C)(C)CCC(=O)O)c21 [Example 20] | – | 67.8 | 91.1 | – | – | 7.8 * % | 22.7 * %
CCCCCCN1CCc2c(C)cc(C)c(NC(=O)CCCC)c21 [Example 21] | – | 92.1 | 91.4 | 94.4 ** % | – | 28.3 * % | –
CC(=O)OCCN1CCc2c(C)cc(C)c(NC(=O)C(C)(C)C)c21 [Example 22] | 38.6 *** % | 40.6 | 92.8 | 78.5 ** % | – | – | –
COCCN1CCc2c(C)cc(C)c(NC(=O)C(C)(C)C)c21 [Example 23] | – | 54.8 | 90.5 | 88.8 ** % | 23.6 ** % | – | –
CCOCCN1CCc2c(C)cc(C)c(NC(=O)C(C)(C)C)c21 [Example 24] | – | 42.2 | 90.5 | 97.1 ** % | 28.3 ** % | – | –
Cc1cc(C)c(NC(=O)C(C)(C)C)c2c1CCN2CCCCCC(=O)O [Example 26] | – | 43.3 | 90.1 | 26.5 ** % | 37.4 ** % | – | –
Cc1cc(C)c(NC(=O)N(Cc2ccc3c(c2)Cc2ccccc2-3)C2CCCCCC2)c(C)c1 [YM-750, 1-cycloheptyl-1-[(2-fluorenyl)methyl]-3-(2,4,6-trimethylphenyl)urea, reference compound] | – | 0 | – | 92.3 ** % | 43.8 ** % | – | –
